Tests used:
Experiment in all cases: two-electrode voltage clamp, Xenopus oocytes
Type in all cases: cell-based
Details in all cases: read-out: EC50 or IC50
[1] = target: T1, GluN1/2B NMDA receptor (GluN1a + GluN2B) (Rattus norvegicus, UniProt P35439+Q00960)
T1 construct: gene Grin1; cRNAs 1:1-3 in Xenopus oocytes; heterotetramer

[2] = target: T2, GluN1/2B NMDA receptor (GluN1a + GluN2B) (Rattus norvegicus, UniProt P35439+Q00960, P35439:Y535A)
T2 construct: gene Grin1; cRNAs 1:1-3 in Xenopus oocytes; heterotetramer
T2 sequence (Q00960 27-1482, other chains not shown): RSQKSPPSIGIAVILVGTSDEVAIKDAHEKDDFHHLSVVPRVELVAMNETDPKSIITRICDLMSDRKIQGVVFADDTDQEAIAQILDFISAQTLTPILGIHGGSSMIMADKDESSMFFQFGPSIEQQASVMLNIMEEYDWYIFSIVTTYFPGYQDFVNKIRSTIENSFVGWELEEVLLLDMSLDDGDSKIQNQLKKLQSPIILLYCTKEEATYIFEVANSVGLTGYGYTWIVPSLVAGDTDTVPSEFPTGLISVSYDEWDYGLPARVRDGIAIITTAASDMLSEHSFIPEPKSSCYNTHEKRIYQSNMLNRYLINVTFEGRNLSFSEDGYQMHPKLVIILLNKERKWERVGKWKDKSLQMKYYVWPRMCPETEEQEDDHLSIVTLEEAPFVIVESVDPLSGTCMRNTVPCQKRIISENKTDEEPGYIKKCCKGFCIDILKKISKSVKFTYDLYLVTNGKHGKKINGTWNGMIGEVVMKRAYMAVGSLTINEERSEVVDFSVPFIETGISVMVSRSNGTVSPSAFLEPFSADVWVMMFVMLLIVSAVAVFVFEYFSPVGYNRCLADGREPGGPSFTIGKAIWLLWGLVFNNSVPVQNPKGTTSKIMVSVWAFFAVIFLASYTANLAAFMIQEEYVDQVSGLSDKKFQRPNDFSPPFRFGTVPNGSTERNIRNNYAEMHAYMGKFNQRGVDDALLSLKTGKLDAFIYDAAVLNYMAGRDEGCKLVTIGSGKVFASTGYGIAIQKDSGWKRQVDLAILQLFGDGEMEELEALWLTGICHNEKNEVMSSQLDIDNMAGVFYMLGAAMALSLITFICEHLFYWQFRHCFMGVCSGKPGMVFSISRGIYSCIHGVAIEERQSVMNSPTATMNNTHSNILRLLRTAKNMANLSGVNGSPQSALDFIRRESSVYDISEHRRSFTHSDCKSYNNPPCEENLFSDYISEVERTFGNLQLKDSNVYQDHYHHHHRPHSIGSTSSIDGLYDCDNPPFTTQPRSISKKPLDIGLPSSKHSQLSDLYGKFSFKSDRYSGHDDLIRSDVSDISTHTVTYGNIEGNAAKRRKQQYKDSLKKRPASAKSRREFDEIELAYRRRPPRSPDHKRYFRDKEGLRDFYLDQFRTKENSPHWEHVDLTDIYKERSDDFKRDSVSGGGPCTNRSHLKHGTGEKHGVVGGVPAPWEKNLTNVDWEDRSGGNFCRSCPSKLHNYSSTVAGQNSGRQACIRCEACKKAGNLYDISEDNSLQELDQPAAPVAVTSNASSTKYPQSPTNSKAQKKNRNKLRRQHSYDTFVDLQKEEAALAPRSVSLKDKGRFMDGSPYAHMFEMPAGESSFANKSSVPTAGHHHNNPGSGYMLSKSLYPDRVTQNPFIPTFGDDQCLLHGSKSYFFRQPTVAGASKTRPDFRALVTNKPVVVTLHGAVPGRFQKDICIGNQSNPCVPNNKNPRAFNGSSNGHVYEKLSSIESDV
Source text: (§1) two-electrode voltage clamp, Xenopus oocytes on GluN1/2B NMDA receptor (GluN1a + GluN2B)

[3] = target: T3, GluN1/2B NMDA receptor (GluN1a + GluN2B) (Rattus norvegicus, UniProt P35439+Q00960, P35439:E781A)
T3 construct: gene Grin1; cRNAs 1:1-3 in Xenopus oocytes; heterotetramer
T3 sequence (Q00960 27-1482, other chains not shown): as above
Source text: as §1

T1 sequence (Q00960 27-1482, other chains not shown): as above

| IC50 [1] [µM] | IC50 [2] [nM] | IC50 [3] [nM] | Structure (SMILES) |
| --- | --- | --- | --- |
| 35.7 ± 1.3 | – | – | NC(CCCP(=O)(O)O)C(=O)O (racemic) [DL-AP5] |
| 4.63 ± 0.33 | 160 ± 20 | 610 ± 90 | O=C(O)c1cc(O)c2c(Cl)cc(Cl)cc2n1 [5,7-DCKA] |

From PMC5423295, “Positive Modulatory Interactions of NMDA Receptor GluN1/2B Ligand Binding Domains Attenuate Antagonists Activity” (Frontiers in Pharmacology, 2017)
